One may read the IC50 as the point on the concentration scale where inhibition reaches its midpoint.

This is an account of results in ChEMBL document CHEMBL6096728, “Simultaneous Induction of Immunogenic Pyroptosis and PD-L1 Downregulation by One Single Photosensitizer for Synergistic Cancer Photoimmunotherapy” (J Med Chem, 2025).

Assay [1] can be described thus: Phototoxicity against human MDA-MB-231 cells preincubated for 24 hrs followed by light irradiation of 20 mW.cm/2 at 400 to 700nm for 10 mins under hypoxia condition by CCK-8 method. In kind it is functional, cell-based. To be noted: MDA-MB-231, light or radiation study.
Assay [2] has as its system 4T1. The assay is described as follows: Induction of cell death in mouse 4T1 cells assessed as increase in red fluorescence at 0.5 uM incubated for 24 hrs followed by light irradiation of 20 mW.cm/2 at 400 to 700nm for 10 mins by Calcein-AM/PI staining based analysis. In kind it is functional.
Assay [3] concerns MDA-MB-231. The assay is described as follows: Induction of cell death in human MDA-MB-231 cells assessed as decrease in green fluorescence at 0.5 uM incubated for 24 hrs followed by light irradiation of 20 mW.cm/2 at 400 to 700nm for 10 mins by Calcein-AM/PI staining based analysis. In kind it is functional.
Assay [4] concerns MDA-MB-231. The assay is described as follows: Induction of cell death in human MDA-MB-231 cells assessed as increase in red fluorescence at 0.5 uM incubated for 24 hrs followed by light irradiation of 20 mW.cm/2 at 400 to 700nm for 10 mins by Calcein-AM/PI staining based analysis. In kind it is functional.
Assay [5] is described as follows: Phototoxicity against mouse 4T1 cells preincubated for 24 hrs followed by light irradiation of 20 mW.cm/2 at 400 to 700nm for 10 mins under hypoxia condition by CCK-8 method. In kind it is functional, cell-based. Conditions: 4T1, light or radiation study.
Assay [6] deals with 4T1. The assay can be described thus: Induction of cell death in mouse 4T1 cells assessed as decrease in green fluorescence at 0.5 uM incubated for 24 hrs followed by light irradiation of 20 mW.cm/2 at 400 to 700nm for 10 mins by Calcein-AM/PI staining based analysis. In kind it is functional.

Active and inactive are the calls of the source. The rule behind the calls is not given here.

Regarding `CCN(CC)c1ccc2nc3c4ccccc4c(=O)cc-3oc2c1` [NILE RED], the IC50 in assay [1] and in assay [5] was above 10 µM throughout. Moreover, the result in assay [2], in assay [3], in assay [4] and in assay [6] was inactive.
